Laboratory results as given in US20160158317A1, “Antimicrobial Peptide Variants and Polynucleotides Encoding Same” (Adenium Biotech A/S, priority 2010, published 2016).
Where a SMILES comes first, the peptide text is derived from it. Bridges are numbered along the chain shown (N, C = ends).

Experiment: Determination of the protein binding (90% serum, 30 kDa filter, HPLC)
Assay type: in vitro ADME
Settings: serum
Procedure: Protein binding assays were performed as follows. The purified peptides were mixed with 90% serum and centrifuged through a 30 kDa filter. The ultra-filtrate and the non filtrated serum samples were quantified by HPLC measurements and the protein binding was subsequently calculated.

Row | Compound | fraction unbound
1 | CC(C)[C@@H]1NC(=O)CNC(=O)[C@H](CC(N)=O)NC(=O)[C@H](CCCNC(=N)N)NC(=O)[C@H](Cc2ccc(O)cc2)NC(=O)[C@H](C(C)C)NC(=O)[C@@H]2CSSC[C@H](NC(=O)[C@H](CO)NC(=O)[C@H](CCCNC(=N)N)NC1=O)C(=O)N[C@@H](Cc1ccc(O)cc1)C(=O)N[C@@H](CCCNC(=N)N)C(=O)N[C@@H](CCCNC(=N)N)C(=O)N[C@H](C(=O)N[C@@H](CC(N)=O)C(=O)O)CSSC[C@H](NC(=O)[C@H](Cc1ccccc1)NC(=O)CN)C(=O)N[C@@H](Cc1c[nH]c3ccccc13)C(=O)N[C@@H](Cc1ccc(O)cc1)C(=O)N[C@@H](C(C)C)C(=O)N2 [compound 44] (H-GFCWYVCVYRNGVRSCYRRCN-OH; disulfide 3-20, 7-16) | 0.15
2 | CC(C)[C@@H]1NC(=O)CNC(=O)[C@H](CC(N)=O)NC(=O)[C@H](CCCNC(=N)N)NC(=O)[C@H](Cc2ccc(O)cc2)NC(=O)[C@H](C(C)C)NC(=O)[C@@H]2CSSC[C@H](NC(=O)[C@H]([C@@H](C)O)NC(=O)[C@H](CCCNC(=N)N)NC1=O)C(=O)N[C@@H](Cc1ccc(O)cc1)C(=O)N[C@@H](CCCNC(=N)N)C(=O)N[C@@H](CCCNC(=N)N)C(=O)N[C@H](C(=O)N[C@@H](CC(N)=O)C(=O)O)CSSC[C@H](NC(=O)[C@H](Cc1ccccc1)NC(=O)CN)C(=O)N[C@@H](Cc1c[nH]c3ccccc13)C(=O)N[C@@H](Cc1ccc(O)cc1)C(=O)N[C@@H](C(C)C)C(=O)N2 [compound 45] (H-GFCWYVCVYRNGVRTCYRRCN-OH; disulfide 3-20, 7-16) | 0.02
3 | CC(C)[C@@H]1NC(=O)CNC(=O)[C@H](CC(N)=O)NC(=O)[C@H](CCCNC(=N)N)NC(=O)[C@H](Cc2ccc(O)cc2)NC(=O)[C@H](C(C)C)NC(=O)[C@@H]2CSSC[C@H](NC(=O)[C@H](C(C)C)NC(=O)[C@H](CCCNC(=N)N)NC1=O)C(=O)N[C@@H](Cc1c[nH]cn1)C(=O)N[C@@H](CCCNC(=N)N)C(=O)N[C@@H](CCCNC(=N)N)C(=O)N[C@H](C(=O)N[C@@H](CC(N)=O)C(=O)O)CSSC[C@H](NC(=O)[C@H](Cc1ccccc1)NC(=O)CN)C(=O)N[C@@H](Cc1c[nH]c3ccccc13)C(=O)N[C@@H](Cc1ccc(O)cc1)C(=O)N[C@@H](C(C)C)C(=O)N2 [compound 46] (H-GFCWYVCVYRNGVRVCHRRCN-OH; disulfide 3-20, 7-16 (inferred); N-terminus and C-terminus assumed) | 0.12
4 | CC(C)[C@@H]1NC(=O)CNC(=O)[C@H](CC(N)=O)NC(=O)[C@H](CCCNC(=N)N)NC(=O)[C@H](Cc2ccc(O)cc2)NC(=O)[C@H](C(C)C)NC(=O)[C@@H]2CSSC[C@H](NC(=O)[C@H](C(C)C)NC(=O)[C@H](CCCNC(=N)N)NC1=O)C(=O)N[C@@H](CCCCN)C(=O)N[C@@H](CCCNC(=N)N)C(=O)N[C@@H](CCCNC(=N)N)C(=O)N[C@H](C(=O)N[C@@H](CC(N)=O)C(=O)O)CSSC[C@H](NC(=O)[C@H](Cc1ccccc1)NC(=O)CN)C(=O)N[C@@H](Cc1c[nH]c3ccccc13)C(=O)N[C@@H](Cc1ccc(O)cc1)C(=O)N[C@@H](C(C)C)C(=O)N2 [compound 47] (H-GFCWYVCVYRNGVRVCKRRCN-OH; disulfide 3-20, 7-16 (inferred); N-terminus and C-terminus assumed) | 0.11
5 | CC(C)[C@@H]1NC(=O)CNC(=O)[C@H](CC(N)=O)NC(=O)[C@H](CCCNC(=N)N)NC(=O)[C@H](Cc2ccc(O)cc2)NC(=O)[C@H](C(C)C)NC(=O)[C@@H]2CSSC[C@H](NC(=O)[C@H](C(C)C)NC(=O)[C@H](CCCNC(=N)N)NC1=O)C(=O)N[C@@H](CC(N)=O)C(=O)N[C@@H](CCCNC(=N)N)C(=O)N[C@@H](CCCNC(=N)N)C(=O)N[C@H](C(=O)N[C@@H](CC(N)=O)C(=O)O)CSSC[C@H](NC(=O)[C@H](Cc1ccccc1)NC(=O)CN)C(=O)N[C@@H](Cc1c[nH]c3ccccc13)C(=O)N[C@@H](Cc1ccc(O)cc1)C(=O)N[C@@H](C(C)C)C(=O)N2 [compound 48] (H-GFCWYVCVYRNGVRVCNRRCN-OH; disulfide 3-20, 7-16 (inferred); N-terminus and C-terminus assumed) | 0.32
6 | CC(C)[C@@H]1NC(=O)CNC(=O)[C@H](CC(N)=O)NC(=O)[C@H](CCCNC(=N)N)NC(=O)[C@H](Cc2ccc(O)cc2)NC(=O)[C@H](C(C)C)NC(=O)[C@@H]2CSSC[C@H](NC(=O)[C@H](C(C)C)NC(=O)[C@H](CCCNC(=N)N)NC1=O)C(=O)N[C@@H](Cc1ccc(O)cc1)C(=O)N[C@@H](CCCNC(=N)N)C(=O)N[C@@H](CCCNC(=N)N)C(=O)N[C@H](C(=O)N[C@@H](CO)C(=O)O)CSSC[C@H](NC(=O)[C@H](Cc1ccccc1)NC(=O)CN)C(=O)N[C@@H](Cc1c[nH]c3ccccc13)C(=O)N[C@@H](Cc1ccc(O)cc1)C(=O)N[C@@H](C(C)C)C(=O)N2 [compound 53] (H-GFCWYVCVYRNGVRVCYRRCS-OH; disulfide 3-20, 7-16 (inferred); N-terminus and C-terminus assumed) | 0.01
7 | CC(C)[C@@H]1NC(=O)CNC(=O)[C@H](CC(N)=O)NC(=O)[C@H](CCCNC(=N)N)NC(=O)[C@H](Cc2ccc(O)cc2)NC(=O)[C@H](C(C)C)NC(=O)[C@@H]2CSSC[C@H](NC(=O)[C@H](C(C)C)NC(=O)[C@H](CCCNC(=N)N)NC1=O)C(=O)N[C@@H](Cc1ccc(O)cc1)C(=O)N[C@@H](CCCNC(=N)N)C(=O)N[C@@H](CCCNC(=N)N)C(=O)N[C@H](C(=O)N[C@H](C(=O)O)[C@@H](C)O)CSSC[C@H](NC(=O)[C@H](Cc1ccccc1)NC(=O)CN)C(=O)N[C@@H](Cc1c[nH]c3ccccc13)C(=O)N[C@@H](Cc1ccc(O)cc1)C(=O)N[C@@H](C(C)C)C(=O)N2 [compound 54] (H-GFCWYVCVYRNGVRVCYRRCT-OH; disulfide 3-20, 7-16 (inferred); N-terminus and C-terminus assumed) | 0.01
8 | CC(C)[C@@H]1NC(=O)CNC(=O)[C@H](CC(N)=O)NC(=O)[C@H](CCCNC(=N)N)NC(=O)[C@H](Cc2ccc(O)cc2)NC(=O)[C@H](C(C)C)NC(=O)[C@@H]2CSSC[C@H](NC(=O)[C@H](C(C)C)NC(=O)[C@H](CCCNC(=N)N)NC1=O)C(=O)N[C@@H](CCCNC(=N)N)C(=O)N[C@@H](CCCNC(=N)N)C(=O)N[C@@H](CCCNC(=N)N)C(=O)N[C@H](C(=O)N[C@@H](CC(N)=O)C(=O)O)CSSC[C@H](NC(=O)[C@H](Cc1ccccc1)NC(=O)CN)C(=O)N[C@@H](Cc1ccccc1)C(=O)N[C@@H](Cc1ccc(O)cc1)C(=O)N[C@@H](C(C)C)C(=O)N2 [compound 56] (H-GFCFYVCVYRNGVRVCRRRCN-OH; disulfide 3-20, 7-16 (inferred); N-terminus and C-terminus assumed) | 0.06
9 | CC(C)[C@@H]1NC(=O)CNC(=O)[C@H](CC(N)=O)NC(=O)[C@H](CCCNC(=N)N)NC(=O)[C@H](Cc2ccc(O)cc2)NC(=O)[C@H](C(C)C)NC(=O)[C@@H]2CSSC[C@H](NC(=O)[C@H](C(C)C)NC(=O)[C@H](CCCNC(=N)N)NC1=O)C(=O)N[C@@H](Cc1ccc(O)cc1)C(=O)N[C@@H](CCCNC(=N)N)C(=O)N[C@@H](CCCNC(=N)N)C(=O)N[C@H](C(=O)N[C@@H](CC(N)=O)C(=O)O)CSSC[C@H](NC(=O)[C@H](Cc1ccccc1)NC(=O)CN)C(=O)NCC(=O)N[C@@H](Cc1c[nH]cn1)C(=O)N[C@@H](C(C)C)C(=O)N2 [compound 60] (H-GFCGHVCVYRNGVRVCYRRCN-OH; disulfide 3-20, 7-16 (inferred); N-terminus and C-terminus assumed) | 0.36
